Assay results reported in US10464947B2 (Incyte Corporation, priority 2013, dated 2019).

Each molecule was assayed on KMS.12.BM cells (assay: KMS.12.BM Cell Viability Assay (Example B1)). Details: 3 days, Cell Titer-GLO, read-out: KMS cellular IC50.
Assay type: cell-based, human
Procedure: KMS.12.BM cell line (human myeloma) was purchased from JCRB (Osaka, Japan) and maintained in RPMI with 10% FBS culture medium. To measure the cytotoxic activity of the compounds through ATP quantitation, the KMS.12.BM cells are plated in the RPMI culture medium at 5000 cells/well/per 100 μL into a 96-well polystyrene clear black tissue culture plate (Greiner-bio-one through VWR, NJ), in the presence or absence of a concentration range of test compounds. After 3 days, […] Cell Titer-GLO Luminescent (Promega, Madison, Wis.) cell culture agent is added to each well for 10 min. at room temperature to stabilize the luminescent signal. This determines the number of viable cells in culture based on quantitation of the ATP present, which signals the presence of metabolically active cells.
Work on Cc1noc(C)c1-c1ccc2nc(N3CCC(C)(O)C3)n3c2c1OC[C@@H]3c1ccccn1 (single isomer, unassigned) [Example 146B] yielded an IC50 of less than 1000 nM.

Same assay, conditions: Homo sapiens, 72 h, 3 days, Cell Titer-GLO, read-out: KMS cellular IC50
Work on Cc1noc(C)c1-c1ccc2nc(N3CC[C@@H](C(=O)NC(C)C)C3)n3c2c1OC[C@@H]3c1ccccn1 [Example 145, (3R)-1-[(4S)-7-(3,5-Dimethylisoxazol-4-yl)-4-pyridin-2-yl-4,5-dihydroimidazo[1,5,4-de][1,4]benzoxazin-2-yl]-N-isopropylpyrrolidine-3-carboxamide] yielded an IC50 of less than 1000 nM. With CC(=O)N(C)[C@@H]1CCN(c2nc3ccc(-c4c(C)noc4C)c4c3n2[C@@H](c2ccccn2)CO4)C1 [Example 222, N-{(3R)-1-[(4S)-7-(3,5-dimethylisoxazol-4-yl)-4-pyridin-2-yl-4,5-dihydroimidazo[1,5,4-de][1,4]benzoxazin-2-yl]pyrrolidin-3-yl}-N-methylacetamide] the IC50 was less than 1000 nM. Cc1noc(C)c1-c1ccc2nc(N3CCC(C(N)=O)CC3)n3c2c1OC[C@@H]3c1ccccn1 [Example 188, 1-[(4S)-7-(3,5-dimethylisoxazol-4-yl)-4-pyridin-2-yl-4,5-dihydroimidazo[1,5,4-de][1,4]benzoxazin-2-yl]piperidine-4-carboxamide] showed an IC50 of less than 1000 nM. Work on Cc1noc(C)c1-c1ccc2nc(N3CC[C@@H](NC(=O)C4CCC4)C3)n3c2c1OC[C@@H]3c1ccccn1 [Example 210, N-{(3R)-1-[(4S)-7-(3,5-dimethylisoxazol-4-yl)-4-pyridin-2-yl-4,5-dihydroimidazo[1,5,4-de][1,4]benzoxazin-2-yl]pyrrolidin-3-yl}cyclobutanecarboxamide] yielded an IC50 of less than 1000 nM. Cc1noc(C)c1-c1ccc2nc(N3CCCCC3)n3c2c1OCC3c1ccccc1 (stereo not drawn) [Example 56, 7-(3,5-Dimethylisoxazol-4-yl)-4-phenyl-2-piperidin-1-yl-4,5-dihydroimidazo[1,5,4-de][1,4]benzoxazine] showed an IC50 of less than 1000 nM. For Cc1noc(C)c1-c1ccc2[nH]c(=O)n3c2c1OC(C(=O)NCCO)C3c1ccccc1 (single isomer, unassigned) [Example 48B, 7-(3,5-Dimethylisoxazol-4-yl)-N-(2-hydroxyethyl)-2-oxo-4-phenyl-1,2,4,5-tetrahydroimidazo[1,5,4-de][1,4]benzoxazine-5-carboxamide], the IC50 was 1000 to 10000 nM. Cc1noc(C)c1-c1cc(CNC(=O)CN(C)C)c2[nH]c(=O)n3c2c1OC[C@@H]3c1ccccn1 [Example 143, 2-(Dimethylamino)-N-{[(4S)-7-(3,5-dimethylisoxazol-4-yl)-2-oxo-4-pyridin-2-yl-1,2,4,5-tetrahydroimidazo[1,5,4-de][1,4]benzoxazin-9-yl]methyl}acetamide] showed an IC50 of less than 1000 nM. In the case of Cc1noc(C)c1-c1ccc2nc(N3CC[C@@H](NS(C)(=O)=O)C3)n3c2c1OC[C@@H]3c1ccccn1 [Example 207, N-{(3R)-1-[(4S)-7-(3,5-dimethylisoxazol-4-yl)-4-pyridin-2-yl-4,5-dihydroimidazo[1,5,4-de][1,4]benzoxazin-2-yl]pyrrolidin-3-yl}methanesulfonamide], the IC50 is reported as less than 1000 nM. In the case of Cc1noc(C)c1-c1ccc2nc(N3CCC[C@@H](O)C3)n3c2c1OC[C@@H]3c1ccccn1 [Example 170A, (3R)-1-[(4S)-7-(3,5-dimethylisoxazol-4-yl)-4-pyridin-2-yl-4,5-dihydroimidazo[1,5,4-de][1,4]benzoxazin-2-yl]piperidin-3-ol], the IC50 is reported as less than 1000 nM. Work on Cc1noc(C)c1-c1ccc2nc(N3CC[C@@H](NC(=O)N4CCOCC4)C3)n3c2c1OC[C@@H]3c1ccccn1 [Example 153, N-{(3R)-1-[(4S)-7-(3,5-Dimethylisoxazol-4-yl)-4-pyridin-2-yl-4,5-dihydroimidazo[1,5,4-de][1,4]benzoxazin-2-yl]pyrrolidin-3-yl}morpholine-4-carboxamide] yielded an IC50 of less than 1000 nM. Work on Cc1noc(C)c1-c1ccc2nc(N3CCN(CC4CC4)CC3)n3c2c1OC[C@@H]3c1ccccn1 [Example 183, (4S)-2-[4-(cyclopropylmethyl)piperazin-1-yl]-7-(3,5-dimethylisoxazol-4-yl)-4-pyridin-2-yl-4,5-dihydroimidazo[1,5,4-de][1,4]benzoxazine] yielded an IC50 of less than 1000 nM. For Cc1noc(C)c1-c1ccc2nc(N3CCN(S(C)(=O)=O)CC3)n3c2c1OC[C@@H]3c1ccccn1 [Example 173, (4S)-7-(3,5-dimethylisoxazol-4-yl)-2-[4-(methylsulfonyl)piperazin-1-yl]-4-pyridin-2-yl-4,5-dihydroimidazo[1,5,4-de][1,4]benzoxazine], the IC50 was less than 1000 nM. CCC(=O)NC1CN(c2nc3ccc(-c4c(C)noc4C)c4c3n2[C@@H](c2ccccn2)CO4)C1 [Example 232, N-{1-[(4S)-7-(3,5-dimethylisoxazol-4-yl)-4-pyridin-2-yl-4,5-dihydroimidazo[1,5,4-de][1,4]benzoxazin-2-yl]azetidin-3-yl}propanamide] gave an IC50 of less than 1000 nM. CC(=O)NC1CCN(c2nc3ccc(-c4c(C)noc4C)c4c3n2[C@@H](c2ccccn2)CO4)CC1 [Example 190, N-{1-[(4S)-7-(3,5-dimethylisoxazol-4-yl)-4-pyridin-2-yl-4,5-dihydroimidazo[1,5,4-de][1,4]benzoxazin-2-yl]piperidin-4-yl}acetamide] gave an IC50 of less than 1000 nM. Molecule Cc1noc(C)c1-c1ccc2nc(C(C)O)n3c2c1OC[C@@H]3c1ccccn1 (stereo partly drawn) [Example 90, 1-[(4S)-7-(3,5-Dimethylisoxazol-4-yl)-4-pyridin-2-yl-4,5-dihydroimidazo[1,5,4-de][1,4]benzoxazin-2-yl]ethanol] has an IC50 of less than 1000 nM. With Cc1noc(C)c1-c1ccc2nc(N3CC(O)C3)n3c2c1OCC3c1ccccc1 (stereo not drawn) [Example 59] the IC50 was less than 1000 nM. Molecule Cc1noc(C)c1-c1ccc2nc([C@@H](O)CO)n3c2c1OC[C@@H]3c1ccccn1 [Example 89, (1R)-1-[(4S)-7-(3,5-Dimethylisoxazol-4-yl)-4-pyridin-2-yl-4,5-dihydroimidazo[1,5,4-de][1,4]benzoxazin-2-yl]ethane-1,2-diol] has an IC50 of less than 1000 nM. Cc1noc(C)c1-c1ccc2nc(N3CCC(O)C3)n3c2c1OCC3c1ccccc1 (stereo not drawn) [Example 55, 1-[7-(3,5-Dimethylisoxazol-4-yl)-4-phenyl-4,5-dihydroimidazo[1,5,4-de][1,4]benzoxazin-2-yl]pyrrolidin-3-ol] was tested, and the IC50 was less than 1000 nM. Cc1noc(C)c1-c1ccc2nc(N3CC[C@@H](NC(=O)CC#N)C3)n3c2c1OC[C@@H]3c1ccccn1 [Example 211, 2-cyano-N-{(3R)-1-[(4S)-7-(3,5-dimethylisoxazol-4-yl)-4-pyridin-2-yl-4,5-dihydroimidazo[1,5,4-de][1,4]benzoxazin-2-yl]pyrrolidin-3-yl}acetamide] gave an IC50 of less than 1000 nM. With Cc1noc(C)c1-c1ccc2[nH]c(=O)n3c2c1OCC3c1ccc(F)cc1 (stereo not drawn) [Example 49, 7-(3,5-Dimethylisoxazol-4-yl)-4-(4-fluorophenyl)-4,5-dihydroimidazo[1,5,4-de][1,4]benzoxazin-2(1H)-one] the IC50 was less than 1000 nM. Cc1noc(C)c1-c1ccc2nc(-c3ccccc3)n3c2c1OCC3c1ccccc1 (stereo not drawn) [Example 41, 7-(3,5-Dimethylisoxazol-4-yl)-2,4-diphenyl-4,5-dihydroimidazo[1,5,4-de][1,4]benzoxazine] gave an IC50 of less than 1000 nM. For Cc1noc(C)c1-c1cc(-c2cn[nH]c2C)c2[nH]c(=O)n3c2c1OCC3c1ccccn1 (stereo not drawn) [Example 257, 7-(3,5-dimethylisoxazol-4-yl)-9-(3-methyl-1H-pyrazol-4-yl)-4-pyridin-2-yl-4,5-dihydroimidazo[1,5,4-de][1,4]benzoxazin-2(1H)-one], the IC50 was less than 1000 nM. Cc1noc(C)c1-c1cc(CNC(C)C)c2[nH]c(=O)n3c2c1OCC3c1ccccn1 (stereo not drawn) [Example 253, 7-(3,5-Dimethylisoxazol-4-yl)-9-[(isopropylamino)methyl]-4-pyridin-2-yl-4,5-dihydroimidazo[1,5,4-de][1,4]benzoxazin-2(1H)-one] showed an IC50 of 1000 to 10000 nM. Cc1noc(C)c1-c1ccc2nc(N3CCC(O)CC3)n3c2c1OC[C@@H]3c1ccccn1 [Example 169, 1-[(4S)-7-(3,5-dimethylisoxazol-4-yl)-4-pyridin-2-yl-4,5-dihydroimidazo[1,5,4-de][1,4]benzoxazin-2-yl]piperidin-4-ol] showed an IC50 of less than 1000 nM. Cc1noc(C)c1-c1ccc2nc(C(=O)OC(C)(C)C)n3c2c1OC[C@@H]3c1ccccn1 [Example 93, tert-Butyl (4S)-7-(3,5-dimethylisoxazol-4-yl)-4-pyridin-2-yl-4,5-dihydroimidazo[1,5,4-de][1,4]benzoxazine-2-carboxylate] gave an IC50 of less than 1000 nM. Work on Cc1noc(C)c1-c1cc(CO)c2[nH]c(=O)n3c2c1OCC3c1ccccn1 (stereo not drawn) [Example 254, 7-(3,5-Dimethylisoxazol-4-yl)-9-(hydroxymethyl)-4-pyridin-2-yl-4,5-dihydroimidazo[1,5,4-de][1,4]benzoxazin-2(1H)-one] yielded an IC50 of less than 1000 nM.

Same assay, conditions: Homo sapiens, KMS-12-BM, 72 h, 3 days, Cell Titer-GLO, read-out: KMS cellular IC50
In the case of CCOC(=O)C1Oc2c(-c3c(C)noc3C)ccc3[nH]c(=O)n(c23)C1c1ccccn1 (stereo not drawn) [Example 20, Ethyl 7-(3,5-dimethylisoxazol-4-yl)-2-oxo-4-pyridin-2-yl-1,2,4,5-tetrahydroimidazo[1,5,4-de][1,4]benzoxazine-5-carboxylate], the IC50 is reported as less than 1000 nM. Cc1noc(C)c1-c1ccc2[nH]c(=O)n3c2c1OC(C)(C)C3c1ccccn1 (single isomer, unassigned) [Example 61A, 7-(3,5-Dimethylisoxazol-4-yl)-5,5-dimethyl-4-pyridin-2-yl-4,5-dihydroimidazo[1,5,4-de][1,4]benzoxazin-2(1H)-one] gave an IC50 of less than 1000 nM. Cc1noc(C)c1-c1ccc2nc(N3CCC(C)(O)C3)n3c2c1OC[C@@H]3c1ccccn1 (mixture of isomers) [Example 146C, 1-[(4S)-7-(3,5-Dimethylisoxazol-4-yl)-4-pyridin-2-yl-4,5-dihydroimidazo[1,5,4-de][1,4]benzoxazin-2-yl]-3-methylpyrrolidin-3-ol] gave an IC50 of less than 1000 nM.
